The record followed here is ChEMBL document CHEMBL1201862, “PubChem BioAssay data set” (2004).

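Method: 48-hour compound exposure of cells in 96-well plates, five concentrations, linear interpolation of endpoints. GI50 marks 50% less growth.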 The source made the active and inactive calls. No stated cut-off is given here; in the data, active = GI50 up to about 1.1 µM and inactive = higher.

Among the test systems are 786-0; A498; CAKI-1; COLO 205; DU-145; HOP-92; HT-29; M14; MCF7; MDA-MB-231; NCI-H23; NCI-H522; OVCAR-4; OVCAR-8; RPMI-8226; SK-OV-3; SR; SW-620; U-251; UACC-257.
Common to all, as to test: NCI tumour cell line growth inhibition, 48 h

For `Cc1cc(C(O)CNC(C)CCn2cnc3c2c(=O)n(C)c(=O)n3C)ccc1O` (stereo not given), the GI50 in the test on 786-0, in the test with A498, with CAKI-1, with COLO 205, in the test with DU-145 and in the test on HOP-92 was > 100 µM (inactive) throughout. The GI50 in the test with HT-29, in the test on M14, in the test on MCF7, in the test on MDA-MB-231, in the test on NCI-H23 and with NCI-H522 was > 100 µM (inactive) throughout. Further, the GI50 in the test on OVCAR-4, in the test with OVCAR-8, in the test with RPMI-8226, in the test with SK-OV-3, in the test with SR and with SW-620 was > 100 µM (inactive) each time. Besides, the GI50 in the test with U-251 and in the test with UACC-257 was > 100 µM (inactive) in each case.
On to `COC1C(N)C(OC2C(Oc3cccc4c(O)c5c(=O)oc6ccc(C)c7c(=O)oc(c34)c5c67)OC(C)C(O)C2(C)O)OC(C)C1O` (stereo not given), for which the GI50 was < 0.0123 µM (active) in the test on 786-0; < 0.01 µM (active) with A498; 0.0159 µM (active) in the test with CAKI-1; 0.0456 µM (active) in the test on COLO 205; 0.187 µM (active) with DU-145; 0.0231 µM (active) with HOP-92. In addition, the GI50 with HT-29 was < 0.0168 µM (active); with M14, 0.0789 µM (active); in the test with MCF7, < 0.01 µM (active); in the test on MDA-MB-231, 0.109 µM (active); in the test on NCI-H23, 0.0269 µM (active); with NCI-H522 it was < 0.01 µM (active). In addition, the GI50 was 0.405 µM (active) in the test on OVCAR-4; 0.0154 µM (active) with OVCAR-8; < 0.01 µM (active) in the test with RPMI-8226; 0.114 µM (active) in the test with SK-OV-3; < 0.215 µM (active) in the test on SR; 0.0102 µM (active) in the test on SW-620. In addition, the values for the GI50 with U-251 and in the test on UACC-257 were < 0.01 µM (active) and 0.0658 µM (active), respectively.
